Results: US20220227773A1, “FUSED RING COMPOUND, PREPARATION METHOD THEREFOR AND USE THEREOF” (SHANGHAI INSTITUTE OF MATERIA MEDICA, CHINESE ACADEMY OF …, priority 2019, published 2022)
Counter-ions that a name gives are not always drawn. Like-named read-outs stand apart in the source and are kept apart here.

Tests used:
[1] = biological target: T1, hSERT (5-HTT) in HEK293-hSERT cells (Homo sapiens, UniProt P31645); assay: 5-HTT reuptake activity assay (fluorescence neurotransmitter transporter uptake kit); assay type: cell-based; conditions: serotonin reuptake inhibition
T1 construct: expressed in transfected cells; host or cells: HEK293

[2] = biological target: T2, human recombinant 5-HT3 receptor (Homo sapiens, UniProt P46098); assay: 5-HT3 receptor affinity assay (3H-BRL 43694 radioligand binding); conditions: read-out: inhibition (%) at 1 μM
T2 construct: expressed in transfected cells; host or cells: HEK293 (membrane preparation)
T2 sequence (P46098 24-478): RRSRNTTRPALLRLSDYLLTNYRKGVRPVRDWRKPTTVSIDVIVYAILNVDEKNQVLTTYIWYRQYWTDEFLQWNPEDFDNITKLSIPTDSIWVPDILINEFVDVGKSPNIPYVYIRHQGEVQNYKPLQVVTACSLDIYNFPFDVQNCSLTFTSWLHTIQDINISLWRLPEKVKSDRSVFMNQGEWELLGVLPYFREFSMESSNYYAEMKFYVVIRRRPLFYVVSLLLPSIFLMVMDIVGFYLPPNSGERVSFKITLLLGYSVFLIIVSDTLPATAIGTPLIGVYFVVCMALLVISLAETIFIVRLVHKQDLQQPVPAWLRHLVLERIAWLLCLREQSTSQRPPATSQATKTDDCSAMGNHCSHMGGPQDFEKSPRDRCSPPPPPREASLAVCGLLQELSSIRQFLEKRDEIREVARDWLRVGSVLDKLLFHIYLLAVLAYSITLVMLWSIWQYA

mice = assay: Forced swimming test (FST) in mice; assay type: in vivo; conditions: Mus musculus
Protocol: 3. In Vivo Drug Efficacy Test (Mouse Forced Swimming Model)
Experimental animals: C57BL/6 mice (Shanghai Xipuer-Bikai Experimental Animal Co., Ltd.), male, 6 weeks old, weighing 15-20 g. ICR mice (Shanghai Xipuer-Bikai Experimental Animal Co., Ltd.), male, 6 weeks old, weighing 20-25 g. All the ordered mice were fed in a standard environment for 2-3 weeks before test.
Forced Swimming Test (FST): in the forced swimming apparatus, the water level is 45 cm, and the water temperature is 25° C. Before the experiment, the mice were placed in the experimental room for 1 h for adapting to the environment. At the beginning of the experiment, the mice were placed in the apparatus for 6min, and the whole process was recorded with a camera. When analyzing the data, only the immobility time of the mice in the last 4 min was counted, and the result was expressed by mean±SD.
The results were analyzed by one-way analysis of variance. […] FST: Forced swimming test; TST: Tail suspension test.

[3] = po, FST, dose significantly reducing immobility time of mice, read-out: Effective dose
[4] = ip, read-out: Effective dose (mg/kg)
[5] = 1 μM compound, 0.5 nM 3H-BRL 43694, HEK293 membranes

T1 sequence (P31645 whole entry): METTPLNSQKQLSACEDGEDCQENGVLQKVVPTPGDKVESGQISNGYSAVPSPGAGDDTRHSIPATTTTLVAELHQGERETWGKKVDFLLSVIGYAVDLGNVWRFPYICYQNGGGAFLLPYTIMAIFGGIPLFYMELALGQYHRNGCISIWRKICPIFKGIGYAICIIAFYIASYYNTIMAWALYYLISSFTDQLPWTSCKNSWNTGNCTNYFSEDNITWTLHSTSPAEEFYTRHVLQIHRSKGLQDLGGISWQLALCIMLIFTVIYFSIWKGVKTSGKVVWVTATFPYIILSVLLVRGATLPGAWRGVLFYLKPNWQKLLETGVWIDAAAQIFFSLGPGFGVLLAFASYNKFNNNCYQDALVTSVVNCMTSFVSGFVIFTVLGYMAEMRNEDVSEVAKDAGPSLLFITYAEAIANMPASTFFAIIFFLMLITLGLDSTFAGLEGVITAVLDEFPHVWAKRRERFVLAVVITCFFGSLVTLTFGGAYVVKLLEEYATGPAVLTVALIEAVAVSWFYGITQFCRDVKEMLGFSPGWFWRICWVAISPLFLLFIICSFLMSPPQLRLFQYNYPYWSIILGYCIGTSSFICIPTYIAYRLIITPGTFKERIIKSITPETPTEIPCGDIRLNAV

| SMILES | IC50 [1] [nM] | other results |
| --- | --- | --- |
| CN1CC2CCN(c3ccc4sccc4c3)C2C1 (stereo not shown) [Example 65, 1-(Benzothiophen-5-yl)-5-methyloctahydropyrrolo[3,4-b]pyrrole oxalate] | < 50 | – |
| c1ccc2c(N3CC4CNCC4C3)csc2c1 (stereo not shown) [Example 23, 2-(Benzo[b]thiophen-3-yl)octahydropyrrolo[3,4-c]pyrrole maleate] | < 200 | – |
| c1ccc2c(C3CC4CNCC4C3)cccc2c1 (stereo not shown) [Example 8, 5-(naphthalen-1-yl)octahydrocyclopenta[c]pyrrole hydrochloride] | < 200 | – |
| C1=C(c2cccc3ccccc23)CC2CNCC12 (stereo not shown) [Example 56, 5-(naphthalen-1-yl)-1,2,3,3a,4,6a-hexahydrocyclopenta[c]pyrrole dihydrochloride] | < 50 | – |
| c1cc(N2CC3CCNCCC3C2)c2sccc2c1 (stereo not shown) [Example 43, 2-(Benzo[b]thiophen-7-yl)decahydropyrrolo[3,4-d]azepine maleate] | < 50 | – |
| Cc1cccc(N2CC3CN(C)CC3C2)c1C (stereo not shown) [Example 67, 2-(2,3-dimethylphenyl)-5-methyloctahydropyrrolo[3,4-c]pyrrole oxalate] | < 200 | – |
| c1cc2cc(N3CCC4CNCC43)ccc2s1 (stereo not shown) [Example 64, 1-(Benzothiophen-5-yl)octahydropyrrolo[3,4-b]pyrrole maleate] | < 50 | – |
| Clc1ccc(N2CC3CCNCCC3C2)cc1Cl (stereo not shown) [Example 42, 2-(3,4-dichlorophenyl)decahydropyrrolo[3,4-d]azepine maleate] | < 10 | inhibition at 1 µM [2]: 103% |
| Fc1ccc2cc(N3CC4CNCC4C3)ccc2c1.O=C(O)/C=C\C(=O)O (stereo not shown) [Example 29, 2-(6-fluoronaphthalen-2-yl)octahydropyrrolo[3,4-c]pyrrole maleate] | < 10 | minimal effective dose (mice; [3]): 5 mg/kg |
| Clc1ccc(N2CCC3CNCC3CC2)c(Cl)c1 (stereo not shown) [Example 90, 6-(2,4-dichlorophenyl)decahydropyrrolo[3,4-d]azepine hydrochloride] | < 50 | – |
| CN1CC2CN(c3c(F)cc4ccccc4c3F)CC2C1 (stereo not shown) [Example 75, 2-(1,3-difluoronaphthalen-2-yl)-5-methyloctahydropyrrolo[3,4-c]pyrrole dihydrochloride] | < 100 | – |
| O=C(O)/C=C\C(=O)O.c1cc2ccc(N3CC4CNCC4C3)cc2s1 (stereo not shown) [Example 19, 2-(Benzo[b]thiophen-6-yl)octahydropyrrolo[3,4-c]pyrrole maleate] | < 10 | minimal effective dose (mice; [4]): 10 mg/kg |
| CN1CC2C=C(c3cc4ccccc4s3)CC2C1 (stereo not shown) [Example 61, 5-(Benzothiophen-2-yl)-2-methyl-1,2,3,3a,4,6a-hexahydrocyclopenta[c]pyrrole hydrochloride] | < 50 | – |
| CN1CC2CN(c3cccc4ccsc34)CC2C1.O=C(O)C(=O)O (stereo not shown) [Example 11, 2-(Benzo[b]thiophen-7-yl)-5-methyloctahydropyrrolo[3,4-c]pyrrole oxalate] | < 50 | inhibition at 1 µM [2, 5]: 86%; minimal effective dose (mice; [4]): 10 mg/kg |
| Cl.c1ccc2sc(C3CC4CNCC4C3)cc2c1 (stereo not shown) [Example 50, 5-(benzothiophen-2-yl)octahydrocyclopenta[c]pyrrole hydrochloride] | < 200 | inhibition at 1 µM [2, 5]: 83%; minimal effective dose (mice; [4]): 10 mg/kg |
| Fc1cc(N2CC3CNCC3C2)cc2sccc12 (stereo not shown) [Example 68, 2-(4-fluorobenzo[b]thiophen-6-yl)octahydropyrrolo[3,4-c]pyrrole dihydrochloride] | < 200 | – |
| Br.CN1CC2CN(c3cccc4sccc34)CC2C1 (stereo not shown) [Example 13, 2-(Benzo[b]thiophen-4-yl)-5-methyloctahydropyrrolo[3,4-c]pyrrole hydrobromide] | < 50 | inhibition at 1 µM [2]: 70%; minimal effective dose (mice; [4]): 5 mg/kg |
| CN1CC2C=C(c3cccc4ccccc34)CC2C1 (stereo not shown) [Example 71, 2-methyl-5-(naphthalen-1-yl)-1,2,3,3a,4,6a-hexahydrocyclopenta[c]pyrrole] | < 50 | – |
| C1=C(c2cccc3ccsc23)CC2CNCC12 (stereo not shown) [Example 48, 5-(Benzothiophen-7-yl)-1,2,3,3a,4,6a-hexahydrocyclopenta[c]pyrrole hydrochloride] | < 50 | – |
| C1=C(c2cc3ccccc3o2)CC2CNCC12 (stereo not shown) [Example 52, 5-(Benzofuran-2-yl)-1,2,3,3a,4,6a-hexahydrocyclopenta[c]pyrrole hydrochloride] | < 200 | – |

| SMILES | IC50 [1] [nM] | other results |
| --- | --- | --- |
| c1ccc2cc(N3CC4CCNCCC4C3)ccc2c1 (stereo not shown) [Example 6, 2-(naphthalen-2-yl)decahydropyrrolo[3,4-d]azepine maleate] | < 200 | – |
| CN(C)CCCC1(c2ccc(F)cc2)OCc2cc(C#N)ccc21 (stereo not shown) [Citalopram, reference compound] | – | minimal effective dose (mice; [3]): 20 mg/kg |
| Cc1cccc(N2CC3CNCC3C2)c1C (stereo not shown) [Example 66, 2-(2,3-dimethylphenyl)octahydropyrrolo[3,4-c]pyrrole maleate] | < 50 | – |
| Clc1cccc(N2CC3CNCC3C2)c1Cl (stereo not shown) [Example 27, 2-(2,3-dichlorophenyl)octahydropyrrolo[3,4-c]pyrrole maleate] | < 50 | inhibition at 1 µM [2]: 104% |
| CN1CC2CC(c3cc4ccccc4s3)CC2C1 (stereo not shown) [Example 62, 5-(benzothiophen-2-yl)-2-methyl-octahydrocyclopenta[c]pyrrole hydrochloride] | < 50 | – |
| CN1CC2C=C(c3ccc4ccccc4c3)CC2C1 (stereo not shown) [Example 57, 2-methyl-5-(naphthalen-2-yl)-1,2,3,3a,4,6a-hexahydrocyclopenta[c]pyrrole] | < 50 | – |
| C1=C(c2cc3ccccc3s2)CC2CNCC12 (stereo not shown) [Example 51, 5-(Benzothiophen-2-yl)-1,2,3,3a,4,6a-hexahydrocyclopenta[c]pyrrole hydrochloride] | < 50 | – |
| CN1CC2CN(c3cccc4c3CCC(=O)N4)CC2C1 (stereo not shown) [Example 93, 5-(5-methylhexahydropyrrolo[3,4-c]pyrrol-2(1H)-yl)-3,4-dihydroquinolin-2(1H)-one dihydrochloride] | < 200 | – |
| CNCC[C@H](Oc1cccc2ccccc12)c1cccs1 [Duloxetine, reference compound] | – | minimal effective dose (mice; po, read-out: Effective dose (mg/kg)): 20 mg/kg |
| CN1CC2CN(c3ccc4cc(F)ccc4c3)CC2C1.O=C(O)/C=C\C(=O)O (stereo not shown) [Example 30, 2-(6-fluoronaphthalen-2-yl)-5-methyloctahydropyrrolo[3,4-c]pyrrole maleate] | < 10 | minimal effective dose (mice; [3]): 20 mg/kg |
| CN1[C@@H]2CC[C@H]1C[C@@H](OC(=O)c1cc(Cl)cc(Cl)c1)C2 [MDL72222, reference compound] | – | inhibition at 1 µM [2]: 93% |
| Clc1ccc(C2=CC3CNCC3C2)cc1Cl (stereo not shown) [Example 9, 5-(3,4-chlorophenyl)-1,2,3,3a,4,6a-hexahydrocyclopenta[c]pyrrole hydrochloride] | < 200 | – |
| CN1CC2CN(c3cc(F)cc4sccc34)CC2C1 (stereo not shown) [Example 70, 2-(6-fluorobenzothiophen-4-yl)-5-methyloctahydropyrrolo[3,4-c]pyrrole oxalate] | < 50 | – |
| CN1CC2C=C(c3cc4ccccc4o3)CC2C1 (stereo not shown) [Example 59, 5-(Benzofuran-2-yl)-2-methyl-1,2,3,3a,4,6a-hexahydrocyclopenta[c]pyrrole hydrochloride] | < 50 | – |
| CN1CC2CN(c3ccc(C(F)(F)F)cc3)CC2C1.O=C(O)C(=O)O (stereo not shown) [Example 81, 2-methyl-5-(4-(trifluoromethyl)phenyl)octahydropyrrolo[3,4-c]pyrrole oxalate] | < 50 | minimal effective dose (mice; [4]): 10 mg/kg |
| CN1CC2CN(c3cc4ccccc4cc3F)CC2C1 (stereo not shown) [Example 76, 2-(3-fluoronaphthalen-2-yl)-5-methyloctahydropyrrolo [3,4-c]pyrrole dihydrochloride] | < 50 | – |
| C1=C(c2ccc3ccccc3c2)CC2CNCC12 (stereo not shown) [Example 54, 5-(naphthalen-2-yl)-1,2,3,3a,4,6a-hexahydrocyclopenta[c]pyrrole hydrochloride] | < 50 | – |
| O=C(O)/C=C\C(=O)O.c1cc2cc(N3CC4CNCC4C3)ccc2o1 (stereo not shown) [Example 21, 2-(Benzofuran-5-yl)octahydropyrrolo[3,4-c]pyrrole maleate] | < 50 | minimal effective dose (mice; [4]): 3 mg/kg |
| CN1CC2CN(c3cccc4ccccc34)CC2C1 (stereo not shown) [Example 26, 2-methyl-5-(naphthalen-1-yl)octahydropyrrolo[3,4-c]pyrrole oxalate] | < 200 | inhibition at 1 µM [2, 5]: 76% |
| Fc1cc(N2CC3CNCC3C2)c2ccsc2c1 (stereo not shown) [Example 69, 2-(6-fluorobenzothiophen-4-yl)octahydropyrrolo[3,4-c]pyrrole dihydrochloride] | < 200 | minimal effective dose (mice; [4]): 10 mg/kg |
